In PubChem BioAssay (NCI):
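Growth conditions: 96-well plates. Treatment: test compound, 48 hours, 5 concentrations. Analysis: linear interpolation between bracketing concentrations; unreached endpoints set to highest concentration. The concentration for full growth arrest is given as TGI.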

Key:
Assay in all cases: growth of human tumour cells (NCI), 48 h
[1] = system: HOP-62 NSCLC
[2] = system: OVCAR-3 ovarian
[3] = system: NCI-H460 lung
[4] = system: OVCAR-4 ovarian
[5] = system: KM20L2 colon
[6] = system: CCRF-CEM leukemia
[7] = system: CAKI-1 renal
[8] = system: 786-0 renal
[9] = system: HL-60(TB) leukemia
[10] = system: SF-268 CNS
[11] = system: SNB-19 CNS
[12] = system: LXFL 529 NSCLC
[13] = system: SK-MEL-28 melanoma
[14] = system: SR leukemia
[15] = system: UACC-257 melanoma
[16] = system: LOX IMVI melanoma
[17] = system: U251 CNS
[18] = system: SN12C renal
[19] = system: UACC-62 melanoma
[20] = system: HCC-2998 colon
[21] = system: A549 NSCLC
[22] = system: SF-295 CNS
[23] = system: EKVX NSCLC
[24] = system: ACHN renal
[25] = system: MOLT-4 leukemia
[26] = system: DMS 273 small cell lung
[27] = system: HT29 colon
[28] = system: NCI-H226 lung
[29] = system: OVCAR-5 ovarian
[30] = system: M14 melanoma
[31] = system: SW-620 colon
[32] = system: A498 renal
[33] = system: SF-539 CNS
[34] = system: RXF 393 renal
[35] = system: RPMI-8226 leukemia
[36] = system: HCT-116 colon
[37] = system: NCI-H522 lung
[38] = system: UO-31 renal
[39] = system: DMS 114 small cell lung
[40] = system: TK-10 renal
[41] = system: NCI-H23 lung
[42] = system: OVCAR-8 ovarian
[43] = system: IGROV1 ovarian
[44] = system: SNB-78 CNS
[45] = system: HCT-15 colon
[46] = system: SK-MEL-2 melanoma
[47] = system: K-562 leukemia
[48] = system: MALME-3M melanoma
[49] = system: KM12 colon
[50] = system: HOP-92 NSCLC
[51] = system: SK-MEL-5 melanoma
[52] = system: SK-OV-3 ovarian
[53] = system: COLO 205 colon
[54] = system: M19-MEL melanoma
[55] = system: SNB-75 CNS
[56] = system: DLD-1 colon

In the case of `CC(SC(=S)Nc1cccc(F)c1)C(=O)O` (stereo unspecified), the TGI [1] is reported as 59.6 µM, the TGI [2] is reported as > 100 µM and the TGI [3] is reported as 68 µM. The TGI [4] was > 100 µM, the TGI [5] was 90.8 µM and the TGI [6] was 55.3 µM. The TGI [7] was > 100 µM, the TGI [8] was > 100 µM and the TGI [9] was 29.4 µM. For the same compound, the TGI [10] was 32.6 µM, the TGI [11] was 99.6 µM and the TGI [12] was 69.1 µM. The TGI [13] was 32.1 µM, the TGI [14] was 30.8 µM and the TGI [15] was 33.5 µM. The TGI [16] was 32.4 µM, the TGI [17] was 84.9 µM and the TGI [18] was > 100 µM. The TGI [19] was 36.4 µM, the TGI [20] was > 100 µM and the TGI [21] was > 100 µM. For the same compound, the TGI [22] was 52.7 µM, the TGI [23] was > 100 µM and the TGI [24] was > 100 µM. The TGI [25] was 46.5 µM, the TGI [26] was 24.5 µM and the TGI [27] was > 100 µM. The TGI [28] was 44.3 µM, the TGI [29] was > 100 µM and the TGI [30] was 35 µM. The TGI [31] was > 100 µM, the TGI [32] was 77 µM and the TGI [33] was 38 µM. It also gave a TGI [34] of 29.1 µM, a TGI [35] of 34.3 µM and a TGI [36] of 37.6 µM. It also gave a TGI [37] of 34.9 µM, a TGI [38] of 74.5 µM and a TGI [39] of 31.7 µM. For the same compound, the TGI [40] was > 100 µM, the TGI [41] was 52.3 µM and the TGI [42] was 76 µM. The TGI [43] was 11 µM, the TGI [44] was > 100 µM and the TGI [45] was 83.7 µM. It also gave a TGI [46] of 46.5 µM and a TGI [47] of 38.9 µM.
For `COC(=O)c1nc(-c2ccc(Cl)c(Cl)c2)nc2ccc(Cl)cc12`, the TGI [48] was > 100 µM, the TGI [49] was > 100 µM and the TGI [3] was > 100 µM. For the same compound, the TGI [5] was > 100 µM, the TGI [50] was 37.7 µM and the TGI [51] was > 100 µM. The TGI [8] was 73 µM, the TGI [9] was > 100 µM and the TGI [10] was > 100 µM. For the same compound, the TGI [11] was > 100 µM, the TGI [52] was 43.1 µM and the TGI [12] was > 100 µM. For the same compound, the TGI [13] was > 100 µM, the TGI [53] was > 100 µM and the TGI [14] was > 100 µM. The TGI [15] was > 100 µM, the TGI [54] was > 100 µM and the TGI [17] was > 100 µM. The TGI [18] was > 100 µM, the TGI [19] was > 100 µM and the TGI [55] was 51.3 µM. For the same compound, the TGI [20] was > 100 µM, the TGI [21] was > 100 µM and the TGI [22] was > 100 µM. For the same compound, the TGI [23] was > 100 µM, the TGI [24] was > 100 µM and the TGI [26] was > 100 µM. For the same compound, the TGI [27] was > 100 µM, the TGI [29] was > 100 µM and the TGI [31] was > 100 µM. For the same compound, the TGI [32] was > 100 µM, the TGI [33] was 84.1 µM and the TGI [34] was 63.5 µM. The TGI [35] was > 100 µM, the TGI [36] was > 100 µM and the TGI [38] was > 100 µM. For the same compound, the TGI [39] was > 100 µM, the TGI [40] was > 100 µM and the TGI [41] was > 100 µM. For the same compound, the TGI [42] was > 100 µM, the TGI [43] was > 100 µM and the TGI [44] was > 100 µM. The TGI [56] was > 100 µM and the TGI [46] was > 100 µM.
